What was measured:
cancer = experiment: Phase I trial combining PLD and trabectedin: best overall response; type: in vivo, human; conditions: for Best Overall Response: SD (patients, tumour type): stable disease > 3 months
Description: (§1) A phase I trial combining PLD and trabectedin was performed. The objective of this study was to determine the maximum tolerated dose (MTD) of trabectidin in combination with PLD 30 mg/m^2 administered every 21 clays. Additional objectives were to evaluate the safety profile of this combination of drugs and to evaluate the pharmacokinetics of trabectidin and PDL when given in combination. The maximum tolerated dose (MTD) relates to the highest dose at which less than one third of the subjects in a dose-level cohort experienced dose-limiting toxicity (DLT).
(§2) We designed a dose finding trial with a fixed PLD dose of 30 mg/m^2 administered intravenously over one hour, followed immediately by one of six trabectedin doses (0.4, 0.6, 0.75, 0.9, 1.1, and 1.3 mg/m^2) administered intravenously over 3 hours. This treatment was repeated every 21 days.
Thirty patients, 14 with sarcomas, 2 with ovarian cancer, 2 with pancreatic cancer, 2 with head and neck carcinoma, 1 with bladder cancer, 1 with breast cancer, 1 with gastric cancer, 1 with NSCLC, 1 with SCLC and 5 more with other types of cancers have been treated (Table 1).
Fourteen (14) additional patients (five with sarcoma, and one each carcinoid tumor, pancreatic, bladder, head and neck, thyroid, breast, gastric, SCLC and ovarian cancer) have had stable disease for > 3 months (Table 8a and 8b).

[1] = Phase I trial combining PLD and trabectedin: pharmacokinetics of trabectedin; type: in vivo, human; conditions: for AUC∞ / Cl / Cmax / T1/2: mean; for Impact of concomitant PLD on the pharmacokinetics of trabectedin: preliminary analysis, versus historical control data of trabectedin alone
Description: as §1, §2
Based on preliminary pharmacokinetic analysis, the values of trabectedin CL (systematic clearance after i.v. dose), t½ (half life) and Vss (apparent volume of distribution at steady state) are within the range observed when trabectedin is given alone (historical control data) (FIG. 1, Table 9),

[2] = Phase I dose escalation study of Doxorubicin (60 mg/m^2) in combination with ET-743; type: in vivo, human; conditions: in combination with Doxorubicin 60 mg/m^2, ET-743 over 3 hours
Description: The following figures indicate that the use of PLD in combination with ET-743, allows an escalated dose of ET-743 to be tolerated, in comparison to when Doxorubicin is used. A phase I dose escalation study of Doxorubicin (60 mg/m^2) in combination with ET-743, administered over 3 hours, could only support a ET-743 dose of 0.7 mg/m^2. In a Phase I dose escalation study of 30 mg/m^2 PLD in combination with ET-743 administered over 3 hours, ET-743 could be escalated to 1.1 mg/m^2.

human tumour xenografts = conditions: xenografts including melanoma and ovarian and breast carcinoma; cited from earlier work
[3] = system: sarcoma and breast and ovarian carcinoma; conditions: phase I, ET-743 alone; cited from earlier work
[4] = patients, infusion over 24-72 hr; cited from earlier work
[5] = increase in plasma liver enzymes, cholangitis; cited from earlier work
[6] = ET743 0.4 mg/m^2 + PLD 30 mg/m^2, N = 3
[7] = ET743 0.6 mg/m^2 + PLD 30 mg/m^2, N = 3
[8] = ET743 0.75 mg/m^2 + PLD 30 mg/m^2, N = 3
[9] = ET743 0.9 mg/m^2 + PLD 30 mg/m^2, N = 3
[10] = ET743 1.1 mg/m^2 + PLD 30 mg/m^2, N = 12
[11] = ET-743 0.9 mg/m^2 3 hours infusion after PLD 30 mg/m^2 1 hour infusion, N 3
[12] = ET-743 1.1 mg/m^2 3 hours infusion after PLD 30 mg/m^2 1 hour infusion, N 3
[13] = ET-743 1.3 mg/m^2 3 hours infusion after PLD 30 mg/m^2 1 hour infusion, N 2

With `COc1cc2c(cc1O)CCN[C@]21CS[C@@H]2c3c(OC(C)=O)c(C)c4c(c3[C@H](COC1=O)N1[C@@H]2[C@H]2c3c(cc(C)c(OC)c3O)C[C@@H]([C@@H]1O)N2C)OCO4` [ET743, Ecteinascidin 743] the “Best Overall Response: PR (patients, tumour type)” value (“Best Overall Response: PR” below) (cancer; [6]) was 1 Sarcoma, the “Treatment termination, subjects: Disease Progression” value (shortened to “Treatment termination, subjects”) (cancer; [6]) was 2 and the “Best Overall Response: PR” value (cancer; [7]) was 0. The “Treatment termination, subjects” value (cancer; [7]) was 1, the “Best Overall Response: PR” value (cancer; [8]) was 0 and the “Treatment termination, subjects” value (cancer; [8]) was 2. The “Best Overall Response: SD (patients, tumour type)” value (cancer; [8]) was 1 Thyroid, the “Best Overall Response: PR” value (cancer; [9]) was 0 and the “Treatment termination, subjects” value (cancer; [9]) was 3. The “Best Overall Response: SD (patients, tumour type)” value (cancer; [9]) was 0, the “Best Overall Response: PR” value (cancer; [10]) was 1 Sarcoma and the “Treatment termination, subjects” value (cancer; [10]) was 5. For the same compound, the “Treatment termination, subjects” value (cancer; ET743 1.3 mg/m^2 + PLD 30 mg/m^2, N = 6) was 2, the “Clinical benefit (measurable responses)” value (cancer; ET-743 together with PLD, soft tissue sarcoma, ovarian and head and neck cancer) was “measurable responses demonstrated evidence of clinical benefit” and the “Treatment termination, subjects” value (cancer; Total, all ET743 dose levels + PLD 30 mg/m^2, N = 30) was 15. For the same compound, the “AUC∞” value [1, 11] was 39 ng·h/mL, the Cl [1, 11] was 23 l/h/m2 and the Cmax [1, 11] was 6 ng/mL. The T1/2 [1, 11] was 93 h, the “AUC∞” value [1, 12] was 42 ng·h/mL and the Cl [1, 12] was 26 l/h/m2. For the same compound, the Cmax [1, 12] was 6 ng/mL, the T1/2 [1, 12] was 65 h and the “AUC∞” value [1, 13] was 31 ng·h/mL. For the same compound, the Cl [1, 13] was 44 l/h/m2, the Cmax [1, 13] was 7 ng/mL and the T1/2 [1, 13] was 47 h. The “Impact of concomitant PLD on the pharmacokinetics of trabectedin” value [1] was “does not have an impact”, the “Impact of concomitant PLD on the pharmacokinetics of trabectedin” value ([1]; listed as trabectidin) was “overtly not impacted” and the “ET-743 dose that could be supported in dose escalation” value [2] was 0.7 mg/m^2. The antineoplastic activity (human tumour xenografts) was “potent antineoplastic activity”, the clinical responses [3] was “promising responses were observed” and the side effects [4] was “myelotoxic and hepatotoxic side effects”. The acute toxicity finding [5] was “liver toxicity as an important side effect”.

— patent US20090117176A1, “Anticancer Treatments” (Pharma Mar, S.A. Sociedad Unipersonal, priority 2004, published 2009)
